Experimental data: patent US20040248887A1, “Inhibitors of cathepsin S” (IRM LLC, priority 2003, published 2004)

What follows are compounds tested against Cathepsin S (Homo sapiens, UniProt P25774) (assay: Cathepsin S inhibition, fluorogenic peptide substrate kinetic assay). Conditions: Table II; Cathepsin S inhibition constant, pH5.5; read-out: Ki Cat. S.
Format: biochemical
Method in brief: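 Ki values derive from apparent constants fitted to progress curves, corrected for competition with substrate via [S] and Km. Kinetics were monitored at 380 nm excitation/450 nm emission, after substrate addition (Ac-HPVK-ACC, 50 μM final) to start the reaction.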

Chain of Cathepsin S (P25774 115-331, species assumed): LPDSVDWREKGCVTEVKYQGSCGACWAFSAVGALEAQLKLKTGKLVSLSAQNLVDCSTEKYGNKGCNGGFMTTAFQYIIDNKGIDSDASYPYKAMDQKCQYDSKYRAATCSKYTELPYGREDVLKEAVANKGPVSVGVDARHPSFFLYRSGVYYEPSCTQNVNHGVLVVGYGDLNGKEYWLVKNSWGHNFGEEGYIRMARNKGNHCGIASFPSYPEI

`C[C@@H](CNc1cccc(S(C)(=O)=O)c1)NC(=O)[C@H](CC1CCCCC1)NC(=O)c1ccc(-c2cccc(F)c2)o1` [Compound 88, 5-(3-Fluoro-phenyl)-furan-2-carboxylic acid {2-cyclohexyl-1-(S)-[2-(3-methanesulfonyl-phenylamino)-1-(S)-methyl-ethylcarbamoyl]-ethyl}-amide] and `C[C@@H](CNc1cccc(C(N)=O)c1)NC(=O)[C@H](CC1CCCCC1)NC(=O)c1ccc(-c2cccc(F)c2)o1` [Compound 98, 5-(3-Fluoro-phenyl)-furan-2-carboxylic acid {1-(S)-[2-(3-carbamoyl-phenylamino)-1-(S)-methyl-ethylcarbamoyl]-2-cyclohexyl-ethyl}-amide] cannot be ordered by Ki: less than 100 nM for the first, less than 100 nM for the second.

`C[C@@H](CNc1cc(F)cc(F)c1)NC(=O)[C@H](CC1CCCCC1)NC(=O)c1ccc(-c2cccc(F)c2)o1` [Compound 87, 5-(3-Fluoro-phenyl)-furan-2-carboxylic acid {2-cyclohexyl-1-(S)-[2-(3,5-difluoro-phenylamino)-1-(S)-methyl-ethylcarbamoyl]-ethyl}-amide] and `COc1cc(C)c(NC[C@H](C)NC(=O)[C@H](CC2CCCCC2)NC(=O)c2ccc(-c3cccc(F)c3)o2)c(C)c1` [Compound 114, 5-(3-Fluoro-phenyl)-furan-2-carboxylic acid {2-cyclohexyl-1-(S)-[2-(4-methoxy-2,6-dimethyl-phenylamino)-1-(S)-methyl-ethylcarbamoyl]-ethyl}-amide] cannot be ordered by Ki: less than 100 nM for the first, less than 100 nM for the second.

`COc1cccc(C(=O)NC(C(=O)N[C@@H](COCc2ccccc2)CN2CCc3cc(F)ccc32)c2ccccc2)c1` (mixture of isomers) [Compound 36, N-(S)-{[1-(R)-Benzyloxymethyl-2-(5-fluoro-2,3-dihydro-indol-1-yl)-ethylcarbamoyl]-phenyl-methyl}-3-methoxy-benzamide] and `COc1cccc(C(=O)N[C@@H](CC2CCCCC2)C(=O)N[C@@H](CC(=O)OCc2ccccc2)CN2CCc3cc(F)ccc32)c1` [Compound 161, 3-(S)-[3-Cyclohexyl-2-(S)-(3-methoxy-benzoylamino)-propionylamino]-4-(5-fluoro-2,3-dihydro-indol-1-yl)-butyric acid benzyl ester] cannot be ordered by Ki: less than 100 nM for the first, less than 100 nM for the second.

`C[C@@H](CN1CC(C)(C)c2cc(F)ccc21)NC(=O)[C@H](CC1CCCCC1)NC(=O)C1CCOCC1` [Compound 173, Tetrahydropyran-4-carboxylic acid {2-cyclohexyl-1-(S)-[2-(5-fluoro-3,3-dimethyl-2,3-dihydro-indol-1-yl)-1-(S)-methyl-ethylcarbamoyl]-ethyl}-amide] and `C[C@@H](CN1CC(C)(C)c2cc(F)ccc21)NC(=O)[C@H](CC(C)(C)C)NC(=O)[C@H]1CCCO1` [Compound 271, Tetrahydro-furan-2-(R)-carboxylic acid {1-(S)-[2-(5-fluoro-3,3-dimethyl-2,3-dihydro-indol-1-yl)-1-(S)-methyl-ethylcarbamoyl]-3,3-dimethyl-butyl}-amide] cannot be ordered by Ki: less than 100 nM for the first, less than 10000 nM for the second.

`C[C@@H](CNc1ccc(OC(F)(F)F)cc1)NC(=O)[C@H](CC1CCCC1)NC(=O)O[C@H]1CCOC1` [Compound 192, (S,S)-{2-Cyclopentyl-1-[1-methyl-2-(4-trifluoromethoxy-phenylamino)-ethylcarbamoyl]-ethyl}-carbamic acid tetrahydrofuran-3-(S)-yl ester] and `C[C@@H](CNc1ccc(OC(F)(F)F)cc1)NC(=O)[C@H](CC1CCCCC1)NC(=O)C1CCOCC1` [Compound 135, Tetrahydropyran-4-carboxylic acid {2-cyclohexyl-1-(S)-[1-(S)-methyl-2-(4-trifluoromethoxy-phenylamino)-ethylcarbamoyl]-ethyl}-amide] cannot be ordered by Ki: less than 100 nM for the first, less than 100 nM for the second.

`O=C(N[C@@H](CC1CCCCC1)C(=O)NCCN1CCc2cc(F)ccc21)C1CC(=O)N(Cc2cccs2)C1` (stereo partly drawn) [Compound 73, 5-Oxo-1-thiophen-2-ylmethyl-pyrrolidine-3-carboxylic acid (S)-{2-cyclohexyl-1-[2-(5-fluoro-2,3-dihydro-indol-1-yl)-ethylcarbamoyl]-ethyl}-amide] and `O=C(N[C@@H](CC1CCCCC1)C(=O)NCCN1CCc2cc(F)ccc21)C1CCN(S(=O)(=O)c2ccc(Cl)cc2)CC1` [Compound 17, 1-(4-Chloro-benzenesulfonyl)-piperidine-4-carboxylic acid (S)-{2-cyclohexyl-1-[2-(5-fluoro-2,3-dihydro-indol-1-yl)-ethylcarbamoyl]-ethyl}-amide] cannot be ordered by Ki: less than 100 nM for the first, less than 1000 nM for the second.

`O=C(N[C@@H](CC1CCCCC1)C(=O)NCCN1CCc2cc(F)ccc21)c1ccc(-c2ccccc2)s1` [Compound 82, 5-Phenyl-thiophene-2-carboxylic acid (S)-{2-cyclohexyl-1-[2-(5-fluoro-2,3-dihydro-indol-1-yl)-ethylcarbamoyl]-ethyl}-amide] and `O=C(N[C@@H](CC1CCCCC1)C(=O)NCCN1CCc2cc(F)ccc21)c1ccc(-c2ccccc2)o1` [Compound 75, 5-Phenyl-furan-2-carboxylic acid (S)-{2-cyclohexyl-1-[2-(5-fluoro-2,3-dihydro-indol-1-yl)-ethylcarbamoyl]-ethyl}-amide] cannot be ordered by Ki: less than 100 nM for the first, less than 100 nM for the second.

`C[C@@H](CNc1ccc(OC(F)(F)F)cc1)NC(=O)[C@H](CC1CCCCC1)NC(=O)c1ccc(-c2cccnc2)o1` [Compound 143, 5-Pyridin-3-yl-furan-2-carboxylic acid {2-cyclohexyl-1-(S)-[1-(S)-methyl-2-(4-trifluoromethoxy-phenylamino)-ethylcarbamoyl]-ethyl}-amide] and `C[C@@H](CNc1ccc(OC(F)(F)F)cc1)NC(=O)[C@H](CC1CCCCC1)NS(=O)(=O)c1cccc(OC(F)(F)F)c1` [Compound 182, (S,S)-3-Cyclohexyl-N-[1-methyl-2-(4-trifluoromethoxy-phenylamino)-ethyl]-2-(3-trifluoromethoxy-benzenesulfonylamino)-propionamide] cannot be ordered by Ki: less than 100 nM for the first, less than 100 nM for the second.

`COc1ccc(NCCNC(=O)[C@H]2CCCC[C@H]2NC(=O)c2cccc(C)c2)cc1` (relative stereo) [Compound 1, N-{cis-2-[2-(4-Methoxy-phenylamino)-ethylcarbamoyl]-cyclohexyl}-3-methyl-benzamide] and `O=C(Nc1ccc(-c2ccccc2)cc1)N[C@@H](CC1CCCCC1)C(=O)NCCN1CCc2cc(F)ccc21` [Compound 225, (S)-2-(3-Biphenyl-4-yl-ureido)-3-cyclohexyl-N-[2-(5-fluoro-2,3-dihydro-indol-1-yl)-ethyl]-propionamide] cannot be ordered by Ki: less than 10000 nM for the first, less than 1000 nM for the second.

`CC(C)(C)C[C@H](NC(=O)OCc1ccccc1)C(=O)N[C@@H](CC(=O)O)CN1CCc2cc(F)ccc21` [Compound 159, 3-(S)-(2-(S)-Benzyloxycarbonylamino-4,4-dimethyl-pentanoylamino)-4-(5-fluoro-2,3-dihydro-indol-1-yl)-butyric acid] and `COc1cccc(C(=O)N[C@@H](CC(C)(C)C)C(=O)N[C@@H](CC(=O)OC(C)(C)C)CN2CCc3cc(F)ccc32)c1` [Compound 160, 4-(5-Fluoro-2,3-dihydro-indol-1-yl)-3-(S)-[2-(S)-(3-methoxy-benzoylamino)-4,4-dimethyl-pentanoylamino]-butyric acid tert-butyl ester] cannot be ordered by Ki: less than 1000 nM for the first, less than 100 nM for the second.

`Cn1cncc1S(=O)(=O)N[C@@H](CC1CCCCC1)C(=O)NCCN1CCc2cc(F)ccc21` [Compound 232, (S)-3-Cyclohexyl-N-[2-(5-fluoro-2,3-dihydro-indol-1-yl)-ethyl]-2-(3-methyl-3H-imidazole-4-sulfonylamino)-propionamide] and `Cc1nc(-c2ccc(S(=O)(=O)N[C@@H](CC3CCCCC3)C(=O)NCCN3CCc4cc(F)ccc43)s2)cs1` [Compound 237, (S)-3-Cyclohexyl-N-[2-(5-fluoro-2,3-dihydro-indol-1-yl)-ethyl]-2-[5-(2-methyl-thiazol-4-yl)-thiophene-2-sulfonylamino]-propionamide] cannot be ordered by Ki: less than 10000 nM for the first, less than 100 nM for the second.

`O=C(N[C@@H](CC1CCCCC1)C(=O)NCCN1CCc2cc(F)ccc21)C1CCN(S(=O)(=O)c2ccc(F)cc2)CC1` [Compound 66, 1-(4-Fluoro-benzenesulfonyl)-piperidine-4-carboxylic acid (S)-{2-cyclohexyl-1-[2-(5-fluoro-2,3-dihydro-indol-1-yl)-ethylcarbamoyl]-ethyl}-amide] and `O=C(N[C@@H](CC1CCCCC1)C(=O)NCCN1CCc2cc(F)ccc21)c1ccc(-c2cccc(C(F)(F)F)c2)o1` [Compound 2, 5-(3-Trifluoromethyl-phenyl)-furan-2-carboxylic acid (S)-{2-cyclohexyl-1-[2-(5-fluoro-2,3-dihydro-indol-1-yl)-ethylcarbamoyl]-ethyl}-amide] cannot be ordered by Ki: less than 1000 nM for the first, less than 100 nM for the second.

`C[C@@H](CN1CCc2cc(F)ccc21)NC(=O)[C@H](CC1CCCCC1)NS(=O)(=O)c1csc(-c2cnco2)c1` [Compound 250, (S,S)-3-Cyclohexyl-N-[2-(5-fluoro-2,3-dihydro-indol-1-yl)-1-methyl-ethyl]-2-(5-oxazol-5-yl-thiophene-3-sulfonylamino)-propionamide] and `C[C@@H](CN1CCc2cc(F)ccc21)NC(=O)[C@H](CC1CCCCC1)NS(=O)(=O)c1cccc(OC(F)(F)F)c1` [Compound 254, (S,S)-3-Cyclohexyl-N-[2-(5-fluoro-2,3-dihydro-indol-1-yl)-1-methyl-ethyl]-2-(3-trifluoromethoxy-benzenesulfonylamino)-propionamide] cannot be ordered by Ki: less than 100 nM for the first, less than 100 nM for the second.

`CC(C)(C)C[C@H](NC(=O)OC(C)(C)C)C(=O)N[C@@H](CC#N)CN1CCc2cc(F)ccc21` [Compound 164, {1-(S)-[2-Cyano-1-(S)-(5-fluoro-2,3-dihydro-indol-1-ylmethyl)-ethylcarbamoyl]-3,3-dimethyl-butyl}-carbamic acid tert-butyl ester] and `C[C@@H](CNc1cccc(S(C)(=O)=O)c1)NC(=O)[C@H](CC(C)(C)C)NC(=O)c1ccc(-c2cccc(F)c2)o1` [Compound 130, 5-(3-Fluoro-phenyl)-furan-2-carboxylic acid {1-(S)-[2-(3-methanesulfonyl-phenylamino)-1-(S)-methyl-ethylcarbamoyl]-3,3-dimethyl-butyl}-amide] cannot be ordered by Ki: less than 1000 nM for the first, less than 100 nM for the second.
